Laboratory results taken from publication PMC5271370, “A High-Content Assay Enables the Automated Screening and Identification of Small Molecules with Specific ALDH1A1-Inhibitory Activity” (PLoS ONE, 2017).
Where two headings read alike, the source gives them in different places.

System: HT-29 cells
Assay: 1,536-well high-content imaging ALDEFLUOR assay, HT-29
Assay type: cell-based, human
Conditions: for IC50: read-out: Aldefluor IC50 HT-29; for Activity in ALDEFLUOR assay, HT-29: semi-automated, active = high quality concentration response curve and >50% efficacy, up to 45.8 μM
Protocol: To miniaturize the assay into a 1536-well format amenable to qHTS, we chose MIA PaCa-2 and HT-29 because of their high levels of ALDH1A1(Fig 1A). Utilizing the 8-step protocol described by Ming et al. as a starting point, we developed a “semi-automated” protocol described in S1 Table. Briefly, we plated 1,000 cells in a volume of 5 μL/well into black-optical quality clear bottom 1,536-well plates, and allowed cells to attach overnight. Culture media was subsequently removed by inverting and centrifuging plates using a plate adaptor as previously described and replaced with 5 μL of a solution of either 500 or 100 nM BAAA substrate in ALDEFLUOR buffer. To identify cells based on nuclear staining, we also included 0.5 nM Hoechst 33342 in the above buffer. […] After incubating the plate for 30 minutes at 37°C, 5% CO2, 85% RH, the remaining substrate was removed by centrifugation as above and replaced with 3 μL of ALDEFLUOR buffer. Fluorescence was subsequently imaged using the IN Cell Analyzer 2200 high-content widefield fluorescence based imager and the resulting images were quantified using the IN Cell Investigator v1.6.2 analysis software (see Experimental Procedures for analysis details).
The ALDEFLUOR kit was purchased from […] Technologies (Vancouver, Canada; #01700). Cells (5 μL) were dispensed into black, optical quality (cyclic olefin copolymer) clear bottom, medium binding TC treated 1,536-well plates (Aurora Microplates, Whitefish MT) using a Multidrop Combi dispenser (ThermoFisher) and incubated overnight (37°C, 5% CO2, 85% RH). Media was subsequently removed by centrifuging plates upside down using a plate adaptor to collect media. A solution of BAAA substrate ([…] Technologies) and Hoechst 33342 (ThermoFisher, final concentrations of 500 nM and 0.5 nM, respectively) in ALDEFLUOR buffer ([…] Technologies #01700) was dispensed onto cells using a Multidrop Combi followed by immediate transfer (23 nL) of compound or control solutions using a Wako Pin-tool (final percentage of DMSO in the cell plates was 0.5%). Unless otherwise noted, all compounds were assayed as 16-point dilutions spanning a final concentration range of 1.4 nM to […]. […] Cells were incubated for 30 minutes or the indicated amount of time at 37°C, 5% CO2, 85% RH to allow the conversion of BAAA into BAA. Supernatant was subsequently removed by centrifugation as described above, then ALDEFLUOR buffer (3 μl) was dispensed by Multidrop Combi before imaging on an IN Cell 2200 (GE Healthcare).
The above assay was modified for an online robotic screening system. After cell plating and overnight incubation, 4 μL of media were removed using a 64-tip metal aspirator head on a Wako aspirator station, leaving 1 μL remaining in the well, followed by a 4 μL dispense of BAAA and Hoechst 33342 in ALDEFLUOR buffer, for a final concentration of 500 nM and 0.5 nM, respectively. Immediately following the dispense, 23 nL of compound or control solutions were transferred using a Wako Pin-tool. Cells were incubated for 30 minutes at 37°C, 5% CO2, 85% RH, followed by a 4 μL media removal using the Wako aspirator, and a subsequent 3 μL addition of ALDEFLUOR buffer. Plates were then immediately read on the IN Cell 2200 as described below.
For images captured on the IN Cell 2200 widefield automated microscope, a 10x 0.45 NA Plan Apo objective lens was used to capture the entire well of the 1,536-well plate using standard DAPI (390/18x, 432/48m) and FITC (475/28x, 525/48m) filter sets at 50 msec and 100 msec exposures, respectively. Images were subsequently analyzed using IN Cell Investigator v1.6.2 analysis software’s canned Multi-Target Analysis algorithm (GE Healthcare). Hoechst stained nuclei were identified using top hat segmentation with a minimum area of 75 μm^2 and sensitivity of 93. […]

[1] = Homo sapiens, HT-29, 0.5 h, validation set, semi-automated protocol, 16-point dilution, 1,000 cells/well, 500 nM BAAA, 30 min
[2] = validation set, semi-automated protocol, 16-point dilution, 1,000 cells/well, 500 nM BAAA, 30 min

Molecule | IC50 [2] [µM] | Activity in ALDEFLUOR assay, HT-29 | other results
CC(C)=CCCC(C)=CC=O (mixture of isomers) [Citral] | 26.6 | – | IC50 [1]: ~27 µM
COc1ccc(C(=O)CCN(C)C)cc1F [Aldi-2] | 17.5 | – | –
CC(C)(C)c1ccc(S(=O)(=O)/C=C/C#N)cc1 [Bay-11-7085] | 14.3 | – | –
Cc1nc2ccccc2n1S(=O)(=O)c1ccc(F)cc1 [CB7] | – | tested negative | –
CCOc1ccc(NCC(=O)Nc2ccc(Cl)cc2C)cc1 [CID 725345] | 14.5 | – | –
COc1cccc2cc(C(=O)CC3(O)C(=O)N(Cc4ccccc4)c4ccccc43)c(=O)oc12 (centres unmarked) [CID 2929292] | – | tested negative | –
CCN(CC)c1ccc(C=O)cc1 [DEAB, 4-N,N-diethylaminobenzaldehyde] | 1.69 | – | –
O=c1c(-c2ccc(O)cc2)coc2cc(O[C@@H]3O[C@H](CO)[C@@H](O)[C@H](O)[C@H]3O)ccc12 [Daidzin] | – | tested negative | –
CCN(CC)C(=S)SSC(=S)N(CC)CC [Disulfiram] | – | – | IC50 [1]: 10.9 µM
Cc1cc2c(C(C)C)c(O)c(O)c(C=O)c2c(O)c1-c1c(C)cc2c(C(C)C)c(O)c(O)c(C=O)c2c1O [Gossypol] | – | active | IC50 (Homo sapiens, HT-29, 0.5 h): 16.5 µM
Nc1ccccc1C(=O)CC(N)C(=O)O (centres unmarked) [Kynurenine] | – | tested negative | –
C#CCN(C)Cc1ccccc1 [Pargyline] | – | active | IC50 [1]: 33.5 µM
O=C1Nc2ccccc2C1=O [indoline-2,3-dione] | – | – | IC50 [1]: 17.8 µM
CVT-10216 | – | tested negative | –
